Measurements: the NIST ThermoML archive (doi:10.1016/j.jct.2014.04.003)
Numbers after ± are expanded uncertainties.

Assay: molar enthalpy of vaporization or sublimation
Details: 298.15 K; Liquid; Static calorimetry

- molar enthalpy: 12.1 ± 0.311 kcal/mol
Compound: Cc1ccc(C)n1C [1,2,5-trimethylpyrrole]
